What was measured:
Conditions in all cases: 72 h
Calu-3 [1] = assay: drug sensitivity score (DSS) for viability; higher = more toxic; extreme values may be limits of the assay
Vero E6 [2] = assay: as above
U2OS [3] = assay: as above
Caco-2 [4] = assay: as above
HepG2 [5] = assay: as above
Calu-3 [6] = assay: cell viability relative to DMSO; higher = less toxic
Vero E6 [7] = assay: as above
U2OS [8] = assay: as above
Caco-2 [9] = assay: as above
HepG2 [10] = assay: as above
Calu-3 [11] = assay: relative viability EC50 (midpoint between 100% and the lowest measured viability); higher = less toxic
Vero E6 [12] = assay: as above
U2OS [13] = assay: as above
Caco-2 [14] = assay: as above
HepG2 [15] = assay: as above

SMILES	drug sensitivity score (Calu-3 [1])	drug sensitivity score (Vero E6 [2])	drug sensitivity score (U2OS [3])	drug sensitivity score (Caco-2 [4])	drug sensitivity score (HepG2 [5])	cell viability (Calu-3 [6]; 1 nM) [%]	cell viability (Calu-3 [6]; 10 nM) [%]	cell viability (Calu-3 [6]; 100 nM) [%]	cell viability (Calu-3 [6]; 1000 nM) [%]	cell viability (Calu-3 [6]; 10000 nM) [%]	cell viability (Vero E6 [7]; 1 nM) [%]	cell viability (Vero E6 [7]; 10 nM) [%]	cell viability (Vero E6 [7]; 100 nM) [%]	cell viability (Vero E6 [7]; 1000 nM) [%]	cell viability (Vero E6 [7]; 10000 nM) [%]	cell viability (U2OS [8]; 1 nM) [%]	cell viability (U2OS [8]; 10 nM) [%]	cell viability (U2OS [8]; 100 nM) [%]	cell viability (U2OS [8]; 1000 nM) [%]	cell viability (U2OS [8]; 10000 nM) [%]	cell viability (Caco-2 [9]; 1 nM) [%]	cell viability (Caco-2 [9]; 10 nM) [%]	cell viability (Caco-2 [9]; 100 nM) [%]	cell viability (Caco-2 [9]; 1000 nM) [%]	cell viability (Caco-2 [9]; 10000 nM) [%]	cell viability (HepG2 [10]; 1 nM) [%]	cell viability (HepG2 [10]; 10 nM) [%]	cell viability (HepG2 [10]; 100 nM) [%]	cell viability (HepG2 [10]; 1000 nM) [%]	cell viability (HepG2 [10]; 10000 nM) [%]	relative viability EC50 (Calu-3 [11]) [µM]	relative viability EC50 (Vero E6 [12]) [µM]	relative viability EC50 (U2OS [13]) [µM]	relative viability EC50 (Caco-2 [14]) [µM]	relative viability EC50 (HepG2 [15]) [µM]
COc1ccc(OC[C@@H]2c3cc(OC)c(OC)cc3CCN2C(=O)c2cccc(Cl)c2)cc1 [CIQ]	0	0	0	0.8	0	100	102	100	109	92.7	100	97.4	93.7	94	98.6	96.6	100	93.9	104	91.3	101	102	91.8	101	76.4	101	96.5	91.4	89.9	106	> 10	> 10	> 10	> 10	> 10
CC(=O)OCC(=O)[C@@]12N=C(C)O[C@@H]1C[C@H]1[C@@H]3CCC4=CC(=O)C=C[C@]4(C)[C@H]3[C@@H](O)C[C@@]12C [Deflazacort (Calcort)]	0.4	0	0	0	0	102	92.9	97.2	80.9	93.1	99.1	99	102	102	102	99.7	95.6	99.7	94.4	97.7	97.8	93.3	92.8	101	97.9	109	103	110	102	95.9	> 10	> 10	> 10	> 10	> 10
NC(=O)C1CCCc2c1[nH]c1ccc(Cl)cc21 (stereo not given) [EX-527]	0	0	0	0	0	107	101	107	96.6	94.7	94.1	107	93.7	98.9	109	95.9	93.2	105	93.4	98.1	99.7	94.8	98.5	92	103	93.3	107	98	110	106	> 10	> 10	> 10	> 10	> 10
Cc1ccc(Cl)cc1N(CC(=O)Nc1c(F)cccc1F)S(C)(=O)=O [FPH1-(BRD-6125)]	0	0	0	0	0	110	93.4	97.8	105	87.3	98.3	103	97.6	97.2	99.1	97.7	103	105	101	97.8	104	97.2	111	99.7	107	100	107	104	94.5	108	> 10	> 10	> 10	> 10	> 10
N=C(N)Nc1ccc2[nH]c3c(c2c1)C[C@@]1(O)[C@H]2Cc4ccc(O)c5c4[C@@]1(CCN2CC1CC1)[C@H]3O5 [GNTI]	0	0	0	0	0.1	93.8	92.7	98.3	102	106	101	97.4	104	104	101	99.7	93.5	101	101	104	99.7	95.2	99.4	95.6	102	99	122	111	98.2	88.1	> 10	> 10	> 10	> 10	> 10
CN(CCOc1ccc(C[C@H](Nc2ccccc2C(=O)c2ccccc2)C(=O)O)cc1)c1ccccn1 [GW-1929]	0	0	0	0.2	0	111	112	120	116	95.6	92	90.2	80.3	82.3	90.2	98.3	96.1	99.3	98.7	98.2	95.1	96.3	107	99.5	85.5	92.2	104	81.5	85.8	106	> 10	> 10	> 10	> 10	> 10
O=C(O)C1=CO[C@@H](O[C@@H]2O[C@H](CO)[C@@H](O)[C@H](O)[C@H]2O)[C@@H]2C(CO)=CC[C@H]12 [Geniposidic acid]	0	0	0	0	0	98.7	103	95.4	113	108	100	107	97.5	104	101	102	96.2	101	94.5	101	117	101	106	103	96.3	110	105	102	111	94.6	> 10	> 10	> 10	> 10	> 10
